Literature values as cited in patent publication US11332491B2, “E-selectin antagonist compounds, compositions, and methods of use” (GLYCOMIMETICS, INC., priority 2011, dated 2022).

Tested on: human AML engrafted in NODscid IL2Rgc-/- mice
Conditions: ASH 2011 abstracts

Structure (SMILES): c1cc(CN2CCCNCCNCCCNCC2)ccc1CN1CCCNCCNCCCNCC1 [plerixafor]
- mobilization of human AML: approximately 2 fold
